Earlier results in patent publication US10292948B2 (Torrent Pharmaceuticals Limited, priority 2017, dated 2019).

Tests used:
[1] = pH dependent

CC[C@@H](c1cccc(O)c1)[C@@H](C)CN(C)C.Cl [Tapentadol, 3-[(1R,2R)-3-(dimethylamino)-1-ethyl-2-methylpropyl]phenol]
time of maximum serum concentration (after oral dosing): around 1.25 hours | administered tapentadol metabolized (first-pass metabolism) (oral administration): about 97% | bioavailability (oral administration): 32% | time after administration at which absorption occurs (oral formulations): at least 45 minutes | solubility [1]: highly soluble
